Measurements reported in patent US11117892B2, “Pyrrolo-pyridine derivative compound, method for preparing same, and pharmaceutical composition containing same as active ingredient for prevention or treatment of protein kinase-related diseases” (DAEGU-GYEONGBUK MEDICAL INNOVATION FOUNDATION, priority 2017, dated 2021).

What was measured:
Assay in all cases: scanMAX Kinase assay panel
Type in all cases: binding
Conditions in all cases: read-out: % control
[1] = target: FGFR2 (Homo sapiens (Human), UniProt P21802)
Method in brief: (§1)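 Each compound is run against the kinase on the scanMAX selectivity panel. Its signal is then expressed relative to a DMSO negative control (100%) and a positive control compound (0%).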

[2] = target: TAOK2 (Homo sapiens (Human), UniProt Q9UL54)
Method in brief: as §1

[3] = target: MKNK2 (Homo sapiens (Human), UniProt Q9HBH9)
Method in brief: as §1

[4] = target: ULK3 (Homo sapiens (Human), UniProt Q6PHR2)
Method in brief: as §1

[5] = target: EGFR(G719C) (Homo sapiens (Human), UniProt P00533, G719C)
Method in brief: as §1

[6] = target: RIOK2 (Homo sapiens (Human), UniProt Q9BVS4)
Chain of RIOK2 (Q9BVS4 whole entry): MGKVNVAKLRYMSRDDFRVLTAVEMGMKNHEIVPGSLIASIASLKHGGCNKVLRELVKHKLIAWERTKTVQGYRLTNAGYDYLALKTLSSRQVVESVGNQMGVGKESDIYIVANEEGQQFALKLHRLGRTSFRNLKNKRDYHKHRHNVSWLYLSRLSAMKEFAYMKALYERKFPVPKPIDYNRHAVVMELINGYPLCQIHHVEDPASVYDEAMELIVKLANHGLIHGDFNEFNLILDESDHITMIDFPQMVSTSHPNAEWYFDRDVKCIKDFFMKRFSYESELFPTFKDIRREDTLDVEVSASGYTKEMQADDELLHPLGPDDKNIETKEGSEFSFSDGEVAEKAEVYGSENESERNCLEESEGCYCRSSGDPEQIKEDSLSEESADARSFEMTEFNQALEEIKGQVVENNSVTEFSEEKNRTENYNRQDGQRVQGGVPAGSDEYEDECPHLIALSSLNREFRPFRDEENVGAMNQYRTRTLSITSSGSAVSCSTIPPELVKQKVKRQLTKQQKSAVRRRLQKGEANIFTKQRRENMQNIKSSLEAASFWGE
Method in brief: as §1

[7] = target: EGFR(L747-T751del, Sins) (Homo sapiens (Human), UniProt P00533, DEL747-751/INS746S)
Method in brief: as §1

[8] = target: CDKL5 (Homo sapiens (Human), UniProt O76039)
Method in brief: as §1

[9] = target: ABL2 (Homo sapiens (Human), UniProt P42684)
Method in brief: as §1

[10] = target: TIE2 (Homo sapiens (Human), UniProt Q02763)
Method in brief: as §1

[11] = target: KIT(V559D, V654A) (Homo sapiens (Human), UniProt P10721, V559D/V654A)
Method in brief: as §1

[12] = target: PIK3CA(Q546K) (Homo sapiens (Human), UniProt P42336, Q546K)
Method in brief: as §1

[13] = target: ABL1(H396P)-nonphosphorylated (Homo sapiens (Human), UniProt P00519, H396P)
Method in brief: as §1

[14] = target: ACVR1 (Homo sapiens (Human), UniProt Q04771)
Chain of ACVR1 (Q04771 21-509): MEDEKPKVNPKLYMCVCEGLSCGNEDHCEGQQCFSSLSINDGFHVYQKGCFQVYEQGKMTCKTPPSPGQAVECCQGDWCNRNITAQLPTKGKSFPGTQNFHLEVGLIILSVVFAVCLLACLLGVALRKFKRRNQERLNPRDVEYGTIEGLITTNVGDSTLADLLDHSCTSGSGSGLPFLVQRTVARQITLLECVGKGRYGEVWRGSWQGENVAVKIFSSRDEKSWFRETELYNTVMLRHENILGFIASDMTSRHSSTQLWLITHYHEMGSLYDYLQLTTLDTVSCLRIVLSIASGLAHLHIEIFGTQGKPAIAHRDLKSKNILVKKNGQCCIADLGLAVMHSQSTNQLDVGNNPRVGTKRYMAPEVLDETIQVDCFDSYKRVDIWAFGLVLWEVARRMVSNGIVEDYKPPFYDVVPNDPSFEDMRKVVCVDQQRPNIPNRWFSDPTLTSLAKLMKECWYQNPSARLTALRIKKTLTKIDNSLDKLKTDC
Method in brief: as §1

[15] = target: JAK1(JH2domain-pseudokinase) (Homo sapiens (Human), UniProt P23458)
Chain of JAK1(JH2domain-pseudokinase) (P23458 583-855): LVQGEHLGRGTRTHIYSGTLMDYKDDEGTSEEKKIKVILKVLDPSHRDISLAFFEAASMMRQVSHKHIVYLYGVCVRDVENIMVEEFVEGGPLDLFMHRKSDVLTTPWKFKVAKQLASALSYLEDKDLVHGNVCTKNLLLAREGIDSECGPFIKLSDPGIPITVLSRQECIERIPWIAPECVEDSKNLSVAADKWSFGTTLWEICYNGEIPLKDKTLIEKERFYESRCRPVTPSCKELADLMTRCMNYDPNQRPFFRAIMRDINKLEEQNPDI
Method in brief: as §1

[16] = target: PKAC-beta (Homo sapiens (Human), UniProt P22694)
Method in brief: as §1

[17] = target: CDKL2 (Homo sapiens (Human), UniProt Q92772)
Method in brief: as §1

[18] = target: AMPK-alpha1 (Homo sapiens (Human), UniProt Q13131)
Method in brief: as §1

[19] = target: MAP4K5 (Homo sapiens (Human), UniProt Q9Y4K4)
Method in brief: as §1

[20] = target: TTK (Homo sapiens (Human), UniProt P33981)
Method in brief: as §1

[21] = target: PAK7 (Homo sapiens (Human), UniProt Q9P286)
Method in brief: as §1

[22] = target: SNRK (Homo sapiens (Human), UniProt Q9NRH2)
Method in brief: as §1

[23] = target: AMPK-alpha2 (Homo sapiens (Human), UniProt P54646)
Method in brief: as §1

[24] = target: EGFR(L747-E749del, A750P) (Homo sapiens (Human), UniProt P00533, A750P/DEL747-749)
Chain of EGFR(L747-E749del, A750P) (P00533 other isoform, or with tags, fused parts or gaps A750P/del L747-E749): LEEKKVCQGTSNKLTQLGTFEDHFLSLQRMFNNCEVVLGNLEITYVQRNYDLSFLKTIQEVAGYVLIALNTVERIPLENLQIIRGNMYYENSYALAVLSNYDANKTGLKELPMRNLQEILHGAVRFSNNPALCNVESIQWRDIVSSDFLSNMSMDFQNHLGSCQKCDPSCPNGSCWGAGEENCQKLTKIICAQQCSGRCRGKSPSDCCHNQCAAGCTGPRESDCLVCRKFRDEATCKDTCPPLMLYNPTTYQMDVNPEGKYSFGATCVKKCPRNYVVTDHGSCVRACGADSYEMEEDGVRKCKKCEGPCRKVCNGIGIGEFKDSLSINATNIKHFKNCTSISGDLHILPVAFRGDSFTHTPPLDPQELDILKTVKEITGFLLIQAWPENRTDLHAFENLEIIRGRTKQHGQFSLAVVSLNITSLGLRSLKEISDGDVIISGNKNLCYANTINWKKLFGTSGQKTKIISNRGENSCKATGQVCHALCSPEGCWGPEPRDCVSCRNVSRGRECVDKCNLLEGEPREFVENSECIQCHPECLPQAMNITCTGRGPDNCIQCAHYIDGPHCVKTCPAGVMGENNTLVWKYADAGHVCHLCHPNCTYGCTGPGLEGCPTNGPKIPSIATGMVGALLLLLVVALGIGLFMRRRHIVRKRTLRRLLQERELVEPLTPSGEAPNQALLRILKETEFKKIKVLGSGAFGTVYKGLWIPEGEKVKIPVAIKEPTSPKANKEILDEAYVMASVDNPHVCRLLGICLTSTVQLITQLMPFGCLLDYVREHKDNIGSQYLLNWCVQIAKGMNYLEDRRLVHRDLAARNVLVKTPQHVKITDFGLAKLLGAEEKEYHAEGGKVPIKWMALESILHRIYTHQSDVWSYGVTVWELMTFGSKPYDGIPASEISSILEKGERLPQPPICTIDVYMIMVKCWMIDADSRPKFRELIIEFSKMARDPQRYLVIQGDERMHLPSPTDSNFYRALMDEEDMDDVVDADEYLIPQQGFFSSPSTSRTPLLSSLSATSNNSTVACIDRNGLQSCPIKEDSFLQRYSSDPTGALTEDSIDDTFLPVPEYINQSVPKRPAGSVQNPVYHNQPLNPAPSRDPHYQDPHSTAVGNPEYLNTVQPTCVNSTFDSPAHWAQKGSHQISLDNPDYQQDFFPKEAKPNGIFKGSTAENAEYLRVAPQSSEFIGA
Method in brief: as §1

[25] = target: BLK (Homo sapiens (Human), UniProt P51451)
Chain of BLK (P51451 whole entry): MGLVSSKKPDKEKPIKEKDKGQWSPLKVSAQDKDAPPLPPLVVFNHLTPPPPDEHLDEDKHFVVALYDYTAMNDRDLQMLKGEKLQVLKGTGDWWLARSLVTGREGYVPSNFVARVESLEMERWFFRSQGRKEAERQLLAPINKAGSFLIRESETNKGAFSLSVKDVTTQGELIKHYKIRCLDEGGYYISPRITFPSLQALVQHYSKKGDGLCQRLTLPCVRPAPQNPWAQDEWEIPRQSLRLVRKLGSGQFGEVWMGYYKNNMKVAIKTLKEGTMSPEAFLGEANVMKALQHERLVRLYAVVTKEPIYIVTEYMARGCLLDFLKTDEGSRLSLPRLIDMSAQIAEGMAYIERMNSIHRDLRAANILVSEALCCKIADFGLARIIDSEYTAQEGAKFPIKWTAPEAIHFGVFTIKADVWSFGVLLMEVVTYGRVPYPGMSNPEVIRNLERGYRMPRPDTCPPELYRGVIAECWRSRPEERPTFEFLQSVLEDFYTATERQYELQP
Method in brief: as §1

[26] = target: FLT3-autoinhibited (Homo sapiens (Human), UniProt P36888)
Method in brief: as §1

[27] = target: CSNK1G3 (Homo sapiens (Human), UniProt Q9Y6M4)
Method in brief: as §1

[28] = target: TAK1 (Homo sapiens (Human), UniProt O43318)
Method in brief: as §1

[29] = target: FGR (Homo sapiens (Human), UniProt P09769)
Chain of FGR (P09769 whole entry): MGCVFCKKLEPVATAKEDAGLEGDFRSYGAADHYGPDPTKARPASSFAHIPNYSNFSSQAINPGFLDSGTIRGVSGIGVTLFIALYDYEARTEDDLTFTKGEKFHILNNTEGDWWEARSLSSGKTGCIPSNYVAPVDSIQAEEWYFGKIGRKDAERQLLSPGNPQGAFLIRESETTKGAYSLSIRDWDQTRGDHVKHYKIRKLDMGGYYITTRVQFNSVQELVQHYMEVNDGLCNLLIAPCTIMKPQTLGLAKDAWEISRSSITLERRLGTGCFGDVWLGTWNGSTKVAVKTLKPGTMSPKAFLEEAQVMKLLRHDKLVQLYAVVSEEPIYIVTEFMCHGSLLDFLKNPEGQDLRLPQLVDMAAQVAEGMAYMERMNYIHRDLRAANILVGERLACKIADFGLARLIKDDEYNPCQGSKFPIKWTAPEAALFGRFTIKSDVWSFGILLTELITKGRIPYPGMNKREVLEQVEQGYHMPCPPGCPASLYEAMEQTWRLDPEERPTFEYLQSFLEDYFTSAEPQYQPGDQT
Method in brief: as §1

[30] = target: AXL (Homo sapiens (Human), UniProt P30530)
Method in brief: as §1

[31] = target: CDK9 (Homo sapiens (Human), UniProt P50750)
Chain of CDK9 (P50750 whole entry): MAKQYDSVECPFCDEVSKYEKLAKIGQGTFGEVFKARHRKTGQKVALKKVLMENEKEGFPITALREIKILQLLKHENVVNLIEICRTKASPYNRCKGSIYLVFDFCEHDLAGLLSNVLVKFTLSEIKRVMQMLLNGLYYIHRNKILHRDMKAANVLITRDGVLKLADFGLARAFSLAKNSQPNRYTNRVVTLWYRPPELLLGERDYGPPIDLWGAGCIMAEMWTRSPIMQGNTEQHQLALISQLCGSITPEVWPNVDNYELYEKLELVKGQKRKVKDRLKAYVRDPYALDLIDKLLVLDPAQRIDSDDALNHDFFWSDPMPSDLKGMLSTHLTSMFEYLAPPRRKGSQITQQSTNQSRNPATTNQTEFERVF
Method in brief: as §1

[32] = target: TGFBR2 (Homo sapiens (Human), UniProt P37173)
Method in brief: as §1

[33] = target: RET (Homo sapiens (Human), UniProt P07949)
Method in brief: as §1

[34] = target: PIP5K1A (Homo sapiens (Human), UniProt Q99755)
Chain of PIP5K1A (Q99755 whole entry): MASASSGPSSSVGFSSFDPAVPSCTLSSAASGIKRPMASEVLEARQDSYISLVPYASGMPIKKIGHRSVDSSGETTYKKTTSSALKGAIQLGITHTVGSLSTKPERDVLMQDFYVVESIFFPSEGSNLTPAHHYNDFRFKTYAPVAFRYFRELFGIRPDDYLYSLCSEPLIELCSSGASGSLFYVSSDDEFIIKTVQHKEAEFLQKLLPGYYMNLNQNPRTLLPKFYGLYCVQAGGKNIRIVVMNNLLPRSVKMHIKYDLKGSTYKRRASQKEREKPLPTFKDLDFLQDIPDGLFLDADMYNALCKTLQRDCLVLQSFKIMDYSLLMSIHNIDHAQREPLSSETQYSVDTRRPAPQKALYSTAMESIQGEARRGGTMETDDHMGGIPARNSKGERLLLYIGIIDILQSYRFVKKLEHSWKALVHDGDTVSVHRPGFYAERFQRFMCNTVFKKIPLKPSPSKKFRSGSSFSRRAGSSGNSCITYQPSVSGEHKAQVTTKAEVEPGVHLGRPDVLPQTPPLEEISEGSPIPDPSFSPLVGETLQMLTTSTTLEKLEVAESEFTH
Method in brief: as §1

[35] = target: RPS6KA5(Kin.Dom.1-N-terminal) (Homo sapiens (Human), UniProt O75582)
Method in brief: as §1

[36] = target: DCAMKL2 (Homo sapiens (Human), UniProt Q8N568)
Method in brief: as §1

[37] = target: MEK1 (Homo sapiens (Human), UniProt Q02750)
Chain of MEK1 (Q02750 whole entry): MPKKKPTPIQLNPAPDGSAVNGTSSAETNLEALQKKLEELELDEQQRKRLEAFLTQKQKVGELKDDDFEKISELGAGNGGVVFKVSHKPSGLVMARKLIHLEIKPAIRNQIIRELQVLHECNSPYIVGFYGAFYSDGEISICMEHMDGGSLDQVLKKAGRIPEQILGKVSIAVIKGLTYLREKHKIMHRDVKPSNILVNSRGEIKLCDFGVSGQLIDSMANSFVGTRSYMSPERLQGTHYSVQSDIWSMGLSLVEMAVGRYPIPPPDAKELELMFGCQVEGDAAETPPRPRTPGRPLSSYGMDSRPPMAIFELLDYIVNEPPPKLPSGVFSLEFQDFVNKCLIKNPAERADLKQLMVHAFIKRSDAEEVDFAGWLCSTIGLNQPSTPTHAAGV
Method in brief: as §1

[38] = target: ABL1(M351T)-phosphorylated (Homo sapiens (Human), UniProt P00519, M351T)
Method in brief: as §1

CCNc1cc(Nc2ccc(C(=O)N3CCC(N4CCOCC4)CC3)cc2OC)nc2[nH]cc(C#N)c12 [Example 18, 4-(ethylamino)-6-((2-methoxy-4-(4-morpholinopiperidine-1-carbonyl)phenyl)amino)-1H-pyrrolo[2,3-b]pyridine-3-carbonitrile]
remaining binding at 1 µM [1]: 85%
remaining binding at 1 µM [2]: 77%
remaining binding at 1 µM [3]: 60%
remaining binding at 1 µM [4]: 95%
remaining binding at 1 µM [5]: 95%
remaining binding at 1 µM [6]: 63%
remaining binding at 1 µM [7]: 100%
remaining binding at 1 µM [8]: 100%
remaining binding at 1 µM [9]: 93%
remaining binding at 1 µM [10]: 82%
remaining binding at 1 µM [11]: 97%
remaining binding at 1 µM [12]: 100%
remaining binding at 1 µM [13]: 89%
remaining binding at 1 µM [14]: 92%
remaining binding at 1 µM [15]: 82%
remaining binding at 1 µM [16]: 66%
remaining binding at 1 µM [17]: 100%
remaining binding at 1 µM [18]: 92%
remaining binding at 1 µM [19]: 99%
remaining binding at 1 µM [20]: 8.9%
remaining binding at 1 µM [21]: 80%
remaining binding at 1 µM [22]: 100%
remaining binding at 1 µM [23]: 100%
remaining binding at 1 µM [24]: 100%
remaining binding at 1 µM [25]: 99%
remaining binding at 1 µM [26]: 82%
remaining binding at 1 µM [27]: 7.1%
remaining binding at 1 µM [28]: 59%
remaining binding at 1 µM [29]: 100%
remaining binding at 1 µM [30]: 98%
remaining binding at 1 µM [31]: 100%
remaining binding at 1 µM [32]: 100%
remaining binding at 1 µM [33]: 100%
remaining binding at 1 µM [34]: 100%
remaining binding at 1 µM [35]: 100%
remaining binding at 1 µM [36]: 77%
remaining binding at 1 µM [37]: 19%
remaining binding at 1 µM [38]: 100%

CCNc1cc(Nc2ccc(C(=O)N3CCC(N4CCOCC4)CC3)cc2OC)nc2[nH]cc(C(F)(F)F)c12 [Example 57, (4-((4-(ethylamino)-3-(trifluoromethyl)-1H-pyrrolo[2,3-b]pyridin-6-yl)amino)-3-methoxyphenyl) (4-morpholinopiperidin-1-yl)methanone]
remaining binding at 1 µM [1]: 72%
remaining binding at 1 µM [2]: 85%
remaining binding at 1 µM [3]: 95%
remaining binding at 1 µM [4]: 83%
remaining binding at 1 µM [5]: 91%
remaining binding at 1 µM [6]: 100%
remaining binding at 1 µM [7]: 97%
remaining binding at 1 µM [8]: 91%
remaining binding at 1 µM [9]: 98%
remaining binding at 1 µM [10]: 89%
remaining binding at 1 µM [11]: 84%
remaining binding at 1 µM [12]: 100%
remaining binding at 1 µM [13]: 68%
remaining binding at 1 µM [14]: 88%
remaining binding at 1 µM [15]: 45%
remaining binding at 1 µM [16]: 92%
remaining binding at 1 µM [17]: 90%
remaining binding at 1 µM [18]: 75%
remaining binding at 1 µM [19]: 100%
remaining binding at 1 µM [20]: 67%
remaining binding at 1 µM [21]: 100%
remaining binding at 1 µM [22]: 100%
remaining binding at 1 µM [23]: 98%
remaining binding at 1 µM [24]: 94%
remaining binding at 1 µM [25]: 73%
remaining binding at 1 µM [26]: 92%
remaining binding at 1 µM [27]: 89%
remaining binding at 1 µM [28]: 79%
remaining binding at 1 µM [29]: 78%
remaining binding at 1 µM [30]: 100%
remaining binding at 1 µM [31]: 85%
remaining binding at 1 µM [32]: 97%
remaining binding at 1 µM [33]: 100%
remaining binding at 1 µM [34]: 88%
remaining binding at 1 µM [35]: 100%
remaining binding at 1 µM [36]: 79%
remaining binding at 1 µM [37]: 100%
remaining binding at 1 µM [38]: 98%
